Measured values published in patent US7601739B2, “Compounds having antiestrogenic and tissue selective estrogenic properties, and compounds with anti-androgenic properties for treatment of prostate cancer and androgen receptor dependent diseases” (Virgina Commonwealth University, priority 2006, dated 2009).

Tested on: MCF-7 cells
Assay: hERα positive breast cancer cell proliferation assay
Type: cell-based, human
Conditions: 2 nM estrogen
Protocol: MCF-7 or MDA-MB-231 cells were inoculated into 12-well culture plates at 10000 cells in 2 ml maintained medium per well. Cells were allowed to attach to the bottom for 24 hrs incubation, then the seeding medium was removed and replaced by the experimental medium (phenol red-free DMEM supplemented with 5% charcoal-stripped fetal bovine serum and Penicillin (100 unit/ml)/Streptomycin ([…])). After 24 hr incubation, the test molecules dissolved in DMSO were added in the wells. […] The culture was continued for 3 days and the medium and tested compounds were replaced every two days. The final cell numbers were estimated with CellTiter proliferation assay kit (Promega, Madison, Wis.) by measuring the absorbance at 570 nm, which is directly proportional to the number of living cells in the culture.
MCF-7 cell line was used to perform this assay and the description of this assay as mentioned above. […] DMSO was used as reference.

C[C@]12CC[C@@H]3c4ccc(O)cc4CC[C@H]3[C@@H]1CC[C@@H]2O [Compound E2, estradiol, reference compound]
stimulation of growth of DMSO-treated MCF-7 cells: 150%
